According to patent publication US20210275605A1, “COMPOSITIONS COMPRISING BACTERIAL STRAINS” (4D Pharma Research Limited, priority 2018, published 2021):
Several values for one entry are separate records, joined by “and”; a condition that tells them apart may be missing. Equal values may be shown once.

Legend:
C57BL/6J mice = experiment: DSS-induced colitis mouse model, ileum histology; assay type: in vivo; conditions: for COLITIS SCORING mean ± SEM: group mean, n = 9, 3% DSS; for COLITIS SCORING mean ± SEM / COLITIS SCORING (sum) / Depletion of goblet cells score / Edema score / Erosion (epithelial cell damage) score / Leucocytes Infiltration score: Day 7; for COLITIS SCORING (sum) / Depletion of goblet cells score / Edema score / Erosion (epithelial cell damage) score / Leucocytes Infiltration score: ileum histology, individual mouse, 3% DSS
Experimental: The objective of this study was to determine the prophylactic efficacy of MRX029 in a DSS-induced colitis mouse model, upon repeated oral administration.
Tacrolimus was dosed at 1 mg/kg/day
Valproic acid was dosed at 200 mg/kg/day
PBS, YCFA and bacterial cultures were dosed at 200 μL/day
PBS, YCFA and live bacteria were be daily administered per os (PO) under a fixed volume of 200 μL/mouse
Tacrolimus will be daily administered subcutaneously (SC) under a volume of 10 mL/kg Valproic acid will be daily administered per os (PO) under a volume of 10 mL/kg
Each of sixty three, 6 week old healthy male C57BL/6J mice were obtained from Charles River (France) and individually identified and labelled with a specific code. Each treatment group (9 animals/group) were housed in three different cages.
Animals were dosed by extracting the dosing aliquot from the Hungate tube using a syringe and a 0.8×40 mm needle injected through the septum. The Hungate tube was mixed by inversion before the dosing aliquot was extracted. The first 50-100 μL through the gavage needle and each mouse was dose with 200 μL of culture by oral gavage
Days −7 to Day −1: Treatment with bacteria and reference substances according the treatment table above • Once daily oral administration of PBS, YCF A or Bacteria—200 μL per mouse • Once daily oral administration of Valproic acid at 200 mg/kg/day under a volume of 10 mL/kg
From Day O to Day+7: DSS administration • Administration of 3% DSS in the drinking water
From Day O to Day+6: Treatment with bacteria and reference substances • Once daily oral administration of PBS, YCFA or Bacteria—200 μL per mouse • Once daily oral administration of Valproic acid-200 mg/kg in sterile distilled water—10 mL/kg • Once daily SC administration of Tacrolimus—1 mg/kg in sterile 1% Tween80, 0.9% NaCl −10 mL/kg
Day +7: Sacrifice of all groups and tissue harvesting • Euthanasia of animals was performed under gas anesthesia (lsoflurane) followed by exsanguination and cervical dislocation. Euthanasia methods used are those recommended for mice and rats by European directive 20 I 0/63/CE and the procedure describing euthanasia methods was approved by IACUC. • Laparotomy and ileum harvesting, just upstream of the caecum (from 0.5 cm and on)—all tissue harvested from exactly the same area between all mice: • 1.5 cm swiss-rolled ileum was harvested for histology, the closest to the caecum
Ileum Swiss-rolls specimens were embedded in paraffin and sections of 5 μm thickness were cut and mounted on SuperFrost Ultra plus glass slides. HP (Hematoxylin-Phloxin) staining & AB-PAS (Alcian Blue-Periodic Acid Schiff) staining were performed to visualize histomorphologic changes. A scoring based on edema, erosion, loss of crypts/goblet cells and infiltrates was established on each animal, using the criteria in the following table: […]

IL-6 = IL-6 secretion by U373 glioblastoma astrocytoma cells (ELISA); assay type: cell-based, human; conditions: for LPS-induced secretion of IL-6 in U373 cells, SCFAs: LPS pre-treatment 1 h, increasing concentrations of pure fatty acid
Experimental: MG U373 is a human glioblastoma astrocytoma derived from a malignant tumour and were purchased from Sigma-Aldrich (cat n. 08061901-1VL). MG U373 human glioblastoma astrocytoma cells were grown in MEM (Sigma Aldrich, cat n. M-2279) supplemented with 10% FBS, 1% Pen Strep, 4 mM L-Glut, 1×MEM Non essential Amino Acid solution and 1× Sodium Pyruvate.
Once grown the MG U373 cells were plated on 24-well plate at 100,000 cells/well. The cells were treated with LPS (1 ug/mL) alone or with 10% of bacteria supernatant from MRx0029 for 24 h. A control was also performed where the cells were incubated in untreated media. Afterwards the cell free supernatants were collected, centrifuged at 10,000 g for 3 min at 4° C. IL-6 was measured using the Human IL-6 ELISA Kit from Peprotech (cat n.#900-K16) according to manufacturer instructions.
Human glioblastoma astrocytoma cell line (U373), were maintained in 25 ml MEME 4.5 g/L D-glucose supplemented with 10% heat-inactivated FBS, 4 mM L-Glutamine, 100 U/ml penicillin, 100 μg/ml streptomycin and 5 μg/ml plasmocin, 1% Non-Essential Amino Acids, 1% Sodium Pyruvate (referred to as full growth media).
Cells were plated in 24-well plates at a density of 100,000 cells/well in 1 ml of full growth media and left to rest at 37° C./5% CO2 for 72 h. On the day of the treatment, the media was removed from each well, cells were rinsed with 0.5 ml wash media (serum free MEME), 0.9 ml stimulation media (MEME media containing 2% FBS) containing 1 μg/ml LPS was added to the appropriate wells and incubated at 37° C. and 5% CO2. After 1 h pre-incubation, cells were removed from CO2 incubator and treated with 100 μl bacteria supernatant. YCFA+ media was used as control. […]
Secretion of IL-6 was analysed using hIL-6 Standard ELISA Kits, according to the manufacturer's protocol in the cell-free supernatants from U373 cells treated as described above. Samples were measured at 405 nm with correction wavelength set at 655 nm on a microplate reader (iMark, Bio-Rad). Raw data were plotted and analysed using GraphPad Prism 7 software. […]

histone deacetylase [1] = experiment: Histone deacetylase activity in whole HT-29 cells; assay type: cell-based; conditions: pure substance; for total HDAC activity inhibition: whole cells or lysate not distinguished
Experimental: The cell line HT-29 was used because histone deacetylase is present.
Cell free supernatants of stationary phase bacterial cultures were isolated by centrifugation and filtering in a 0.22 uM filter. HT-29 cells were used 3 days' post confluence and stepped down in 1 mL DTS 24 hours prior to commencement of the experiment. The HT-29 cells were challenged with 10% cell free supernatant diluted in DTS and was is left to incubate for 48 hours. […] extraction kit and samples were snap frozen prior to HDAC activity measurement. HDAC activity was assessed fluorometrically using the Sigma Aldrich (UK) kit.
(§1) To investigate which metabolites were responsible for the strain-induced HDAC inhibition, different concentrations of hexanoic acid, valeric acid and sodium butyrate were measured for their HDAC inhibition on whole HT-29 cells and on HT-29 cell lysate.

histone deacetylase [2] = experiment: HDAC inhibition on HT-29 cell lysate; assay type: biochemical; conditions: pure substance, different concentrations
Experimental: as §1

In the case of `C=CC[C@@H]1/C=C(\C)C[C@H](C)C[C@H](OC)[C@H]2O[C@@](O)(C(=O)C(=O)N3CCCC[C@H]3C(=O)O[C@H](/C(C)=C/[C@@H]3CC[C@@H](O)[C@H](OC)C3)[C@H](C)[C@@H](O)CC1=O)[C@H](C)C[C@@H]2OC` [Tacrolimus], the “leukocyte infiltration in the ileum, group result” value (C57BL/6J mice; DSS animals versus vehicle DSS groups) is reported as “reduced leukocyte infiltration comparable to controls”, the “COLITIS SCORING mean ± SEM” value (C57BL/6J mice) is reported as 0.44 and the “COLITIS SCORING (sum)” value (C57BL/6J mice) is reported as 0 (6×) and 2 and 1 (2×). The “Depletion of goblet cells score” value (C57BL/6J mice) was 0, the Edema score (C57BL/6J mice) was 0 and the “Erosion (epithelial cell damage) score” value (C57BL/6J mice) was 0. The “Leucocytes Infiltration score” value (C57BL/6J mice) was 0 (6×) and 2 and 1 (2×).
`CCCC(CCC)C(=O)O` [Valproic acid, Valproic Acid] was tested, and the “COLITIS SCORING mean ± SEM” value (C57BL/6J mice) was 0.67, the “COLITIS SCORING (sum)” value (C57BL/6J mice) was 2 (2×) and 1 (2×) and 0 (5×) and the “Depletion of goblet cells score” value (C57BL/6J mice) was 0. The Edema score (C57BL/6J mice) was 0, the “Erosion (epithelial cell damage) score” value (C57BL/6J mice) was 0 and the “Leucocytes Infiltration score” value (C57BL/6J mice) was 2 (2×) and 1 (2×) and 0 (5×).
In the case of `CCCCCC(=O)O` [hexanoic acid], the “LPS-induced secretion of IL-6 in U373 cells, SCFAs” value (IL-6) is reported as “did not inhibit IL-6 secretion” and the “total HDAC activity inhibition” value (histone deacetylase [1]) is reported as “did show significant inhibitory activity”.
For `CCCC(=O)[O-].[Na+]` [sodium butyrate], the “HDAC inhibition on HT-29 cell lysate” value (histone deacetylase [2]) was “significant (P<0.05) inhibition of HDAC activity”, the “LPS-induced secretion of IL-6 in U373 cells, SCFAs” value (IL-6) was “inhibited LPS-induced secretion of IL-6 in U373 cells in a concentration-dependent manner” and the “basal IL-6 secretion in U373 cells” value (IL-6; absence of LPS) was “decreased the basal level of IL-6”. The “HDAC inhibition on whole HT-29 cells” value (histone deacetylase [1]; different concentrations) was “significant (P<0.05) inhibition of HDAC activity” and the “total HDAC activity inhibition” value (histone deacetylase [1]) was “significant HDAC inhibition”.
`CCCCC(=O)O` [valeric acid] was tested, and the “total HDAC activity inhibition” value (histone deacetylase [1]) was “significant HDAC inhibition” and the “total HDAC activity inhibition” value (histone deacetylase [1]; listed as Valeric acid) was “inhibited total HDAC activity”.
